The values that follow come from US9700637B2, “Reaction-based fluorescent probes for detecting zinc” (Massachusetts Institute of Technology, priority 2013, dated 2017).

Data set [1] is described as follows: Deacetylation kinetics monitored by UV-vis absorbance (metal-mediated and uncatalyzed hydrolysis). The class given is physicochemical. Conditions: 2.75 μM, 125 μM ZnCl2, 37° C., 50 mM PIPES pH 7, 100 mM KCl, absorbance 510 nm. As to the method:
FIG. 23 depicts kinetic traces for the deacetylation of DA-ZP1-TPP. The half-life for deacetylation of a 2.75 μM solution of DA-ZP1-TPP, at 37° C. in 50 mM PIPES buffer (pH 7) and 100 mM KCl, was measured in the presence of 125 μM ZnCl2 (+Zn), 250 μM EDTA (−Zn), or 1.25 units of porcine liver esterase (Esterase). The change in absorbance at 520 nm (EDTA and esterase) or 510 nm (ZnCl2) was used to monitor the reaction.
FIG. 26 depicts in vitro characterization of DA-ZP1-A3. (a) UV-vis and (b) fluorescence spectra of a 5 μM solution of DA-ZP1-A3 in buffer (50 mM PIPES, 100 mM KCl; pH 7). Spectra were acquired initially, upon addition of 100 μM ZnCl2, and again after addition of 200 μM EDTA. (c) Time-dependent change in the normalized absorbance of a ca. 5 μM solution DA-ZP1-A3 at 37° C. in buffer (50 mM PIPES, 100 mM KCl; pH 7) in the presence of 100 μM ZnCl2 (λabs=510 nm) or EDTA (λabs=520 nm). (d) Integrated fluorescence intensity of a 1 μM solution of ZP1-A3 (circles) or DA-ZP1-A3 (squares) as a function of pH. […]
DA-ZP1-TPP has a zinc-induced fluorescence response and is relatively stable to uncatalyzed hydrolysis and esterase activity. […] Other late 3d-block transition metal ions, such as Co(II) and Cu(II), can coordinate to DA-ZP1-TPP but are generally not available in appreciable chelatable quantities within the cell. […]

The nature of data set [2]: Charge of predominate species in solution at physiological pH. The class given is physicochemical. The following applies: physiological pH = 7.4.
Data set [3] can be described thus: Zinc-induced fluorescence response in cuvette (turn-on, quantum yield). The class given is physicochemical. The following applies: for zinc-induced fluorescence response (turn-on): excess ZnCl2. The procedure:
FIG. 2 depicts the normalized fluorescent spectra of DA-ZP1-TPP (also referred to as Ac2-ZP1-TPP) and ZP1-TPP in the absence (dashed line) and presence (solid line) of excess ZnCl2. Inset: The y-axis is magnified to aid in the visualization of the ˜7-fold “turn-on” of ZP1-TPP.
FIG. 20 depicts Zn(II)-dependent fluorescence signal enhancement of DA-ZP1-TPP. (a) Normalized fluorescence spectra of a 1 μM solution of DA-ZP1-TPP, in 50 mM PIPES buffer (pH 7) with 1 mM EDTA, 2 mM CaCl2, and 100 mM KCl, upon increasing concentrations of free zinc ions. (b) Zinc binding isotherm for the data in (a), normalized to the fluorescence signal under zinc saturating conditions (λex=495 nm).
Spectra were acquired in 50 mM PIPES (pH 7) with 100 mM KCl. For this titration, a single excitation wavelength of λex=485 nm was used.
The diacetylated version of ZP1-TPP, designated DA-ZP1-TPP, was readily prepared by reacting ZP1-TPP with acetic anhydride overnight at room temperature. Over the course of the reaction, the mixture turned from a dark, salmon-colored solution to a light, nearly colorless liquid, which was purified by HPLC. […] Addition of nanomolar concentrations of zinc ions results in a large increase in both the absorption λabs-Zn=510 nm) and fluorescence (λem-Zn=529 nm, FIG. 20a) spectral bands of DA-ZP1-TPP. These optical changes combine to yield a >140-fold increase in the fluorescence signal (ΦZn=0.75±0.03, FIG. 20). […] Whether the mode of zinc-mediated ester hydrolysis proceeds by internal or external hydroxide attack remains to be determined. […] Addition of a chelator (EDTA) attenuates the fluorescence signal ˜5-fold (Φ=0.15±0.02) in the cuvette (FIG. 22) with a concomitant redshift in the absorption spectrum (λabs=522 nm). Reversibility of the fluorescence signal is an important feature for zinc-responsive probes, because it allows confirmation that the observed increase in fluorescence signal is due to Zn(II) and not the result of an artifact. […]
Using DA-ZP1-A3 as a model system, we assessed its photophysical and zinc-binding properties (FIG. 26). […]

For data set [4] the following is noted: cited from earlier work.

The structures appear in SMILES notation.

As for `CC(=O)Oc1c(Cl)cc2c(c1CN(Cc1ccccn1)Cc1ccccn1)Oc1c(cc(Cl)c(OC(C)=O)c1CN(Cc1ccccn1)Cc1ccccn1)C21OC(=O)c2ccc(C(=O)NCC[P+](c3ccccc3)(c3ccccc3)c3ccccc3)cc21` [DA-ZP1-TPP], the “kobs of zinc-induced deacetylation” value in data set [1] was found to be 0.0855 ± 0.019 s⁻¹. Further, in data set [2], the “Charge of the predominate species in solution” value is on record as “+1”. The “attenuation of fluorescence signal by EDTA” value in data set [3] (chelator (EDTA) added after zinc) was roughly 5 fold. Besides, the “zinc-induced fluorescence response (turn-on)” value in data set [3] is recorded as greater than 140 fold.
In the case of `O=C(NCC[P+](c1ccccc1)(c1ccccc1)c1ccccc1)c1ccc2c(c1)C1(OC2=O)c2cc(Cl)c(O)c(CN(Cc3ccccn3)Cc3ccccn3)c2Oc2c1cc(Cl)c(O)c2CN(Cc1ccccn1)Cc1ccccn1` [ZP1-TPP], the “Charge of the predominate species in solution” value in data set [2] is “Zwitterion”. The “pKa of tertiary nitrogen atoms on the DPA units” value in data set [4] is given as 6.96. In data set [3], the “zinc-induced fluorescence response (turn-on)” value is given as roughly 7 fold.
